Measurements as given in PubChem BioAssay AID179 (DTP/NCI, 2004).
Activity calls are given as the source filed them.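 How the source made its calls: active means compounds giving half or more protection of infected cells from virus-caused growth loss, again on retest; inactive means the rest.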 Where a SMILES comes first, the peptide text is derived from it.

Test system: CEM cells HIV-1 protection, formazan growth assay
Experiment: NCI AIDS Antiviral Assay
Details: for IC50: measured here: growth of uninfected CEM cells
Summary of the method: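 Screen of anti-HIV-1 activity in human CEM cells using a formazan-based growth measurement at five drug concentrations. Hits with 50% or greater protection were repeated, and confirmation required reproducible complete protection.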

Row | SMILES | EC50 | IC50 | outcome
1 | COC(=O)C1=C(C)NC2(C)SC1C(C)C2C(=O)OC (configuration not stated) | > 871 µM | 490 µM | 
2 | COC(=O)c1ccccc1CC1Cc2cccc(C)c2C1=O (configuration not stated) | > 200 µM | 53.7 µM | 
3 | CCN(CC)CC(=O)Nc1cc(NC(=O)CN(CC)CC)c(C)c(NC(=O)CN(CC)CC)c1 | > 200 µM | 56.2 µM | 
4 | Cc1ccc2c(c1)N=Cc1ccccc1O2 | > 174 µM | 10.7 µM | 
5 | COc1cc(/C=C(\C#N)C(N)=C(C#N)C#N)cc(O)c1O | > 47.9 µM | > 47.9 µM | 
6 | COC(=O)[C@@H]1C=CCN1S(=O)(=O)c1ccc(C)cc1 |  |  | inactive
7 | CC(NC(=O)CNC(=O)C(N)CO)C(=O)NC(CCC(N)=O)C(=O)NC(CCC(=O)O)C(=O)NC(C)C(=O)NC(CCCCN)C(=O)NC(CCC(=O)O)C(=O)NC(CCC(N)=O)C(=O)NC(CCCN=C(N)N)C(=O)NC(C(=O)NC(CC(N)=O)C(=O)NC(C)C(=O)NC(Cc1cnc[nH]1)C(=O)NC(CO)C(=O)O)C(C)O (configuration not stated) (H-SGAQEAKEQRTNAHS-OH; configuration not given here) | > 100 µM | > 100 µM | 
8 | Clc1ccc(-c2c(C3=NCCCN3)nnn2-c2ccc(Cl)cc2)cc1 | > 490 µM | 30.9 µM | 
9 | C[C@@H]1c2ccc3c(c2C2(O)C[C@H]4CCC1N2C4)CC1[C@H]3C[C@@H](O)C2C[C@@H](O)CC[C@@]21C (some centres not stated) | > 30.9 µM | > 30.9 µM | 
10 | COC(=O)n1c(=O)nc2c3c(ncn21)Oc1c(c(-c2ccccc2)nn1-c1ccccc1)C3c1ccc(Cl)cc1 (configuration not stated) | > 100 µM | 2.34 µM | 
11 | CC1=CCC(C(C)(C)NC(=O)c2ccccc2)C/C1=N/O (configuration not stated) | > 91.2 µM | > 91.2 µM | 
12 | CC1(c2ccc(Cl)cc2)C2C(=O)NC(=O)C1C(=O)NC2=O (configuration not stated) | > 813 µM | 490 µM | 
13 | Nc1ccccc1N1C(=O)C(Cl)=C(Cl)C1=O |  |  | inactive
14 | CCOC(=O)CC(NC(=O)c1nc[nH]c1[N+](=O)[O-])C(=O)OCC (configuration not stated) | > 79.4 µM | 39.8 µM | 
15 | Cc1ccc(S(=O)(=O)N(C=O)N=C2CCN(Cc3ccccc3)CC2)cc1 | > 61.7 µM | > 61.7 µM | 
16 | COc1ccccc1C(=O)N(Cc1ccccc1)c1ccc(Cl)c(C(=O)OC(C)C)c1 | > 19.5 µM | 15.5 µM | 

Row | SMILES | EC50 | IC50 | outcome
17 | N#CCCN(CCC#N)c1ccc(/C=C2\CC(O)(c3ccccc3)N(c3ccc(Cl)cc3)C2=O)cc1 (configuration not stated) | > 5.5 µM | > 5.5 µM | 
18 | Nc1nc(N)c(-c2ccccc2)c(C(=O)Nc2ccc(Cl)c(Cl)c2)n1 | > 479 µM |  | 
19 | COc1cc(OC)c(/C=C2\N=C(C)N(Nc3nnc(NN4C(=O)/C(=C/c5c(OC)cc(OC)cc5OC)N=C4C)c4ccccc34)C2=O)c(OC)c1 |  |  | inactive
20 | COc1cc(/C=C/C(=O)CC(=O)/C=C/c2ccc(O)c(O)c2)ccc1O | > 200 µM | 6.76 µM | 
21 | CC(=O)C1CC(C)=CCC12C(=O)Nc1ccccc12 (configuration not stated) | > 195 µM | > 195 µM | 
22 | O=S(=O)(SS(=O)(=O)c1ccccc1)c1ccccc1 | > 115 µM | > 115 µM | 
23 | CCCCCCCCNC(=O)C1=C(C)NC(C)=C(C(=O)NCCCCCCCC)C1 | > 200 µM | 97.7 µM | 
24 | CSc1nc(=O)n(CCC#N)nc1SC | > 200 µM | 29.5 µM | 
25 | Cc1c(N/C=C(\C#N)C(=O)c2ccc(Cl)cc2)c(=O)n(-c2ccccc2)n1C | > 200 µM | 72.4 µM | 
26 | O=c1c(SCc2ccccc2)c(SCc2ccccc2)cnn1-c1ccccc1 | > 24 µM |  | 
27 | O=C1c2ccccc2C(=O)C1(Br)c1ccccc1 | > 200 µM | > 200 µM | 
28 | C=C1C(=O)O[C@@H]2C1C(OC(C)CCC)[C@@H](O)[C@@H](C)C(O)C1O[C@]1(C)[C@H]2O (some centres not stated) |  |  | inactive
29 | CCCCCCCCCCCCCCCC(=O)Nc1ccn(C2CC(OP(=O)(O)OCC3OC(n4cc(C)c(=O)[nH]c4=O)CC3N=[N+]=[N-])C(CO)O2)c(=O)n1 (configuration not stated) | 0.813 µM | > 100 µM | 
30 | CN1CCc2c(sc(N)c2C#N)C1 |  |  | inactive
31 | COc1nc(NC2OCC(O)C(O)C2O)c(NC2OCC(O)C(O)C2O)c(=O)n1C (configuration not stated) | > 575 µM | > 575 µM | 
32 | CC(C)c1cc(C(C)C)c(S(=O)(=O)N=[N+]=[N-])c(C(C)C)c1 | > 17 µM | > 17 µM | 
